Results from patent US12187773B2, “Modified GIP peptide analogues” (Antag Therapeutics ApS, priority 2018, dated 2025).
Like-named read-outs stand apart in the source and are kept apart here. *1 amine or outer side, *2 acyl side, *3 side chain or, on linkers, in order; H or OH if unused. Where a SMILES comes first, the peptide text is derived from it. Side-chain parts run from the residue outwards. [ ]: non-standard residue; d: D form. The star is where a group is joined. C18 diacid = O=C(O)CCCCCCCCCCCCCCCCC(=O)*; C16 diacid = O=C(O)CCCCCCCCCCCCCCC(=O)*; γGlu = O=C(O)[C@H](CCC(=O)[*:2])N[*:1]; pGlu = O=C1CC[C@@H](C(=O)O)N1; AEEA = NCCOCCOCC(=O)O

How the values were obtained:
glucagon receptor (GcgR) = biological target: T1, glucagon receptor (GcgR) (Homo sapiens, UniProt P47871); experiment: cAMP assay - selectivity, antagonism at glucagon receptor; assay type: cell-based; conditions: Table 3A; COS-7 cells; agonist glucagon at 50-80% of maximal cAMP
T1 construct: expressed in transfected cells; host or cells: COS-7 (transient)
Method: Transient transfected COS-7 cells expressing the either of the GLP1 receptor (GLP1R), GLP2 receptor (GLP2R), glucagon receptor (GcgR) or secretin receptor (SCTR) were seeded in white 96-well plates with a density of 3.5*10^4/well. The day after, the cells were washed twice with Hepes buffered saline (HBS) buffer and incubated with HBS and 1 mM 3-isobutyl-1-methylxanthine (IBMX) for 30 min at 37° C. To test for agonistic properties, ligands were added and incubated for 30 min at 37° C. In order to test for antagonistic properties, the cells were preincubated with the antagonists for 10 min prior to the addition the natural agonist for the expressed receptor (GLP1 for GLP1R expressing cells, GLP2 for GLP2R expressing cells, glucagon for the GcgR and secretin for the SCTR) and subsequent incubated for 20 additional min. […] The HitHunter™ cAMP XS assay (DiscoveRx) was carried out according to the manufacturer's instructions.

human GIP receptor = biological target: T2, human GIP receptor (Homo sapiens, UniProt P48546); experiment: cAMP antagonism (CisBio cAMP Dynamic 2 HTRF assay); assay type: cell-based; parameters: pCMV-Script vector
T2 sequence (P48546 22-466): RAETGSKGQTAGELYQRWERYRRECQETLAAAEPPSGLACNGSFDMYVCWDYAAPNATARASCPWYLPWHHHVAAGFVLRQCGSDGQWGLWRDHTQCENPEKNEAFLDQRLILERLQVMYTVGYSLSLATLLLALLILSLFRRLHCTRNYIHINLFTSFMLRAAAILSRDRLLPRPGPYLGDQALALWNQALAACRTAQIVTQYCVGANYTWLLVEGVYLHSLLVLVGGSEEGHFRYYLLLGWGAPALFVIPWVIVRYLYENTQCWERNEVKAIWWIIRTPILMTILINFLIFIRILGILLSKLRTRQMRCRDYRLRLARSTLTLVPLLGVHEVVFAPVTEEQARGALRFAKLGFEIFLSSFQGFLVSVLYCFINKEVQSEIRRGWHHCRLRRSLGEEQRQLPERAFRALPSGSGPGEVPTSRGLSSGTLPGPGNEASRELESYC
Outline: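 Four-parameter fits of cAMP dose-response gave pIC50. cAMP fall was quantified by HTRF competition, ratio 665/620 nm after 60 min at room temperature, against a cAMP standard curve.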

[1] = Elimination half-life (T1/2) estimated in Göttingen minipigs; assay type: in vivo
Method: 2-3 Göttingen minipigs were subcutaneously administered one of the GIP analogues of the present invention (1-10 nmol/kg, total volume 2-6 mL) and blood samples were collected before and up to 432 hours post subcutaneous administration.) from a central venous catheter. The catheter was flushed with saline and heparin between samples. Blood was collected into cold EDTA tubes, centrifuged and plasma was kept at −20° C. pending analyses.
Concentrations of the acylated GIP(3-30)NH2 or GIP(5-30)NH2 analogues in blood samples from Göttingen minipigs were analyzed by RIA. Analogues' immunoreactivity was determined using antiserum Ab95234, Ab95235, Ab95236, a polyclonal in-house antibody raised in rabbits specific for either the mid region of GIP(1-30)NH2 or amidated C-terminus of GIP(3-30)NH2.
In addition to the hormone analysis, blood concentrations of AT374, 380, 382-385, 392-393 were determined by LC/MS performed by Red Glead Discovery AB, Lund, Sweden. The plasma samples were precipitated by addition of 3 parts ethanol followed by thorough mixing. After centrifugation and dilution of the supernatant, the samples were analyzed by LC-MS/MS and compared with a 9-point calibration curve. The calibration curves were prepared in naïve plasma matrix from Göttingen minipigs.

[2] = GIPR, Antagonism, nM, Table 3C, CisBio assay
[3] = Table 1C, CisBio, HEK-293 cells
[4] = cAMP antagonism, nM (IC50), Table 1C, CisBio, HEK-293 cells, agonist GIP1-42 at EC50
[5] = Göttingen, minipig, plasma, subcutaneous, Example 1, read-out: T1/2 (converted)
[6] = sc, Table 1B, species not given, unit h, LC/MS in Göttingen minipig plasma for these IDs, subcutaneous 1-10 nmol/kg, read-out: T½ (converted)

T1 sequence (P47871 26-477, species assumed): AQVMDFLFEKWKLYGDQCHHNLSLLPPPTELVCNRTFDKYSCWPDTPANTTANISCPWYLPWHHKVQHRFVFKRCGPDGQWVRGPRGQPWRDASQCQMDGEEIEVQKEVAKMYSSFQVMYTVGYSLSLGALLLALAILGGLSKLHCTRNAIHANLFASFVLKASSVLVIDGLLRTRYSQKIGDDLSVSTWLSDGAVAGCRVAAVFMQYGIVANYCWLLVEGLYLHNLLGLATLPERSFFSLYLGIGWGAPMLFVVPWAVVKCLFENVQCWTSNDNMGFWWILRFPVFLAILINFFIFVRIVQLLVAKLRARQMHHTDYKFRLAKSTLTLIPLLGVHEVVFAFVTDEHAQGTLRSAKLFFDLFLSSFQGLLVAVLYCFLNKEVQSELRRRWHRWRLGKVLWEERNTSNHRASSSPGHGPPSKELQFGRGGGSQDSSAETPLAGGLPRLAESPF

Structure (SMILES): CC[C@H](C)[C@H](NC(=O)[C@H](CO)NC(=O)[C@H](Cc1ccc(O)cc1)NC(=O)[C@H](CC(=O)O)NC(=O)[C@H](CO)NC(=O)[C@@H](NC(=O)[C@H](Cc1ccccc1)NC(=O)[C@@H](NC(=O)CNC(=O)[C@@H]1CCC(=O)N1)[C@@H](C)O)[C@@H](C)CC)C(=O)N[C@@H](C)C(=O)N[C@@H](CCSC)C(=O)N[C@@H](CC(=O)O)C(=O)N[C@@H](CCCNC(=N)N)C(=O)N[C@H](C(=O)N[C@@H](CCCCNC(=O)COCCOCCNC(=O)COCCOCCNC(=O)COCCOCCNC(=O)CC[C@H](NC(=O)CCCCCCCCCCCCCCCCC(=O)O)C(=O)O)C(=O)N[C@@H](CCC(N)=O)C(=O)N[C@@H](CCC(N)=O)C(=O)N[C@@H](CC(=O)O)C(=O)N[C@@H](Cc1ccccc1)C(=O)N[C@H](C(=O)N[C@@H](CC(N)=O)C(=O)N[C@@H](Cc1c[nH]c2ccccc12)C(=O)N[C@@H](CC(C)C)C(=O)N[C@@H](CC(C)C)C(=O)N[C@@H](C)C(=O)N[C@@H](CCC(N)=O)C(=O)N[C@@H](CCCNC(=N)N)C(N)=O)C(C)C)[C@@H](C)CC [AT382] ([pGlu]GTFISDYSIAMDRIK([AEEA-AEEA-AEEA-γGlu-C18 diacid])QQDFVNWLLAQR-NH2)
- Glucagon R, Antagonism, nM (glucagon receptor (GcgR)): No antagonism
- IC50 (human GIP receptor; [2]): 25.1 nM
- cAMP antagonism, % inhib (human GIP receptor; [3]): 83%
- GIPR, Antagonism, % inhib (human GIP receptor; Table 3C, CisBio assay): 83%
- IC50 (human GIP receptor; [4]): 25.1 nM
- half-life [1, 5]: 29 h
- half-life [1, 6]: 29 h

Structure (SMILES): CC[C@H](C)[C@H](NC(=O)[C@H](CO)NC(=O)[C@H](Cc1ccc(O)cc1)NC(=O)[C@H](CC(=O)O)NC(=O)[C@H](CO)NC(=O)[C@@H](NC(=O)[C@H](Cc1ccccc1)NC(=O)[C@@H](NC(=O)CNC(=O)[C@@H](N)CO)[C@@H](C)O)[C@@H](C)CC)C(=O)N[C@@H](C)C(=O)N[C@@H](CCSC)C(=O)N[C@@H](CC(=O)O)C(=O)N[C@@H](CCCNC(=N)N)C(=O)N[C@H](C(=O)N[C@@H](CCCCNC(=O)COCCOCCNC(=O)COCCOCCNC(=O)COCCOCCNC(=O)CC[C@H](NC(=O)CCCCCCCCCCCCCCC(=O)O)C(=O)O)C(=O)N[C@@H](CCC(N)=O)C(=O)N[C@@H](CCC(N)=O)C(=O)N[C@@H](CC(=O)O)C(=O)N[C@@H](Cc1ccccc1)C(=O)N[C@H](C(=O)N[C@@H](CC(N)=O)C(=O)N[C@@H](Cc1c[nH]c2ccccc12)C(=O)N[C@@H](CC(C)C)C(=O)N[C@@H](CC(C)C)C(=O)N[C@@H](C)C(=O)N[C@@H](CCC(N)=O)C(=O)N[C@@H](CCCNC(=N)N)C(N)=O)C(C)C)[C@@H](C)CC [AT383] (H-SGTFISDYSIAMDRIK([AEEA-AEEA-AEEA-γGlu-C16 diacid])QQDFVNWLLAQR-NH2; N-terminus assumed)
- Glucagon R, Antagonism, nM (glucagon receptor (GcgR)): No antagonism
- IC50 (human GIP receptor; [2]): 12.6 nM
- cAMP antagonism, % inhib (human GIP receptor; [3]): 89%
- GIPR, Antagonism, % inhib (human GIP receptor; Table 3C, CisBio assay): 89%
- IC50 (human GIP receptor; [4]): 12.6 nM
- half-life [1, 6]: 12 h

Structure (SMILES): CC[C@H](C)[C@H](NC(=O)[C@H](CO)NC(=O)[C@H](Cc1ccc(O)cc1)NC(=O)[C@H](CC(=O)O)NC(=O)[C@H](CO)NC(=O)[C@@H](NC(=O)[C@H](Cc1ccccc1)NC(=O)[C@@H](NC(=O)CNC(=O)[C@@H](N)CO)[C@@H](C)O)[C@@H](C)CC)C(=O)N[C@@H](C)C(=O)N[C@@H](CCSC)C(=O)N[C@@H](CC(=O)O)C(=O)N[C@@H](CCCNC(=N)N)C(=O)N[C@H](C(=O)N[C@@H](CCCCNC(=O)COCCOCCNC(=O)COCCOCCNC(=O)CC[C@H](NC(=O)CCCCCCCCCCCCCCCCC(=O)O)C(=O)O)C(=O)N[C@@H](CCC(N)=O)C(=O)N[C@@H](CCC(N)=O)C(=O)N[C@@H](CC(=O)O)C(=O)N[C@@H](Cc1ccccc1)C(=O)N[C@H](C(=O)N[C@@H](CC(N)=O)C(=O)N[C@@H](Cc1c[nH]c2ccccc12)C(=O)N[C@@H](CC(C)C)C(=O)N[C@@H](CC(C)C)C(=O)N[C@@H](C)C(=O)N[C@@H](CCC(N)=O)C(=O)N[C@@H](CCCNC(=N)N)C(N)=O)C(C)C)[C@@H](C)CC [AT384] (H-SGTFISDYSIAMDRIK([AEEA-AEEA-γGlu-C18 diacid])QQDFVNWLLAQR-NH2; N-terminus assumed)
- Glucagon R, Antagonism, nM (glucagon receptor (GcgR)): No antagonism
- IC50 (human GIP receptor; [2]): 54.1 nM
- cAMP antagonism, % inhib (human GIP receptor; [3]): 97%
- GIPR, Antagonism, % inhib (human GIP receptor; Table 3C, CisBio assay): 97%
- IC50 (human GIP receptor; [4]): 54.1 nM
- half-life [1, 5]: 36 h
- half-life [1, 6]: 36 h

Structure (SMILES): CC[C@H](C)[C@H](NC(=O)[C@H](CO)NC(=O)[C@H](Cc1ccc(O)cc1)NC(=O)[C@H](CC(=O)O)NC(=O)[C@H](CO)NC(=O)[C@@H](NC(=O)[C@H](Cc1ccccc1)NC(=O)[C@@H](NC(=O)CNC(=O)[C@@H](N)CO)[C@@H](C)O)[C@@H](C)CC)C(=O)N[C@@H](C)C(=O)N[C@@H](CCSC)C(=O)N[C@@H](CC(=O)O)C(=O)N[C@@H](CCCNC(=N)N)C(=O)N[C@H](C(=O)N[C@@H](CCCCNC(=O)COCCOCCNC(=O)COCCOCCNC(=O)COCCOCCNC(=O)CC[C@H](NC(=O)CCCCCCCCCCCCCCCCC(=O)O)C(=O)O)C(=O)N[C@@H](CCC(N)=O)C(=O)N[C@@H](CCC(N)=O)C(=O)N[C@@H](CC(=O)O)C(=O)N[C@@H](Cc1ccccc1)C(=O)N[C@H](C(=O)N[C@@H](CC(N)=O)C(=O)N[C@@H](Cc1c[nH]c2ccccc12)C(=O)N[C@@H](CC(C)C)C(=O)N[C@@H](CC(C)C)C(=O)N[C@@H](C)C(=O)N[C@@H](CCC(N)=O)C(=O)N[C@@H](CCCNC(=N)N)C(N)=O)C(C)C)[C@@H](C)CC [AT385] (H-SGTFISDYSIAMDRIK([AEEA-AEEA-AEEA-γGlu-C18 diacid])QQDFVNWLLAQR-NH2; N-terminus assumed)
- Glucagon R, Antagonism, nM (glucagon receptor (GcgR)): No antagonism
- IC50 (human GIP receptor; [2]): 43 nM
- cAMP antagonism, % inhib (human GIP receptor; [3]): 70%
- GIPR, Antagonism, % inhib (human GIP receptor; Table 3C, CisBio assay): 70%
- IC50 (human GIP receptor; [4]): 43 nM
- half-life [1, 5]: 20 h
- half-life [1, 6]: 20 h

Structure (SMILES): CC[C@H](C)[C@H](NC(=O)[C@H](CO)NC(=O)[C@H](Cc1ccc(O)cc1)NC(=O)[C@H](CC(=O)O)NC(=O)[C@H](CO)NC(=O)[C@@H](NC(=O)[C@H](Cc1ccccc1)NC(=O)[C@@H](NC(=O)CNC(=O)[C@@H](N)CO)[C@@H](C)O)[C@@H](C)CC)C(=O)N[C@@H](C)C(=O)N[C@@H](CCSC)C(=O)N[C@@H](CC(=O)O)C(=O)N[C@@H](CCCNC(=N)N)C(=O)N[C@H](C(=O)N[C@@H](CCCCNC(=O)CCCCCCCCCCCCCCCCC(=O)O)C(=O)N[C@@H](CCC(N)=O)C(=O)N[C@@H](CCC(N)=O)C(=O)N[C@@H](CC(=O)O)C(=O)N[C@@H](Cc1ccccc1)C(=O)N[C@H](C(=O)N[C@@H](CC(N)=O)C(=O)N[C@@H](Cc1c[nH]c2ccccc12)C(=O)N[C@@H](CC(C)C)C(=O)N[C@@H](CC(C)C)C(=O)N[C@@H](C)C(=O)N[C@@H](CCC(N)=O)C(=O)N[C@@H](CCCNC(=N)N)C(N)=O)C(C)C)[C@@H](C)CC [AT393] (H-SGTFISDYSIAMDRIK(C18 diacid)QQDFVNWLLAQR-NH2; N-terminus assumed)
- Glucagon R, Antagonism, nM (glucagon receptor (GcgR)): No antagonism
- IC50 (human GIP receptor; [2]): 33.5 nM
- cAMP antagonism, % inhib (human GIP receptor; [3]): 78%
- GIPR, Antagonism, % inhib (human GIP receptor; Table 3C, CisBio assay): 78%
- IC50 (human GIP receptor; [4]): 33.5 nM
- half-life [1, 5]: 25 h
- half-life [1, 6]: 25 h
